Reference: patent US20150258101A1 (Proximagen Limited, priority 2014, published 2015)
Structures can show the parent of a compound that is named as a salt.

Assays:
[1] = target: T1, purified recombinantly expressed human SSAO (Homo sapiens, UniProt Q16853); experiment: SSAO enzyme inhibition assay (benzylamine substrate; hydrogen peroxide/HRP-coupled or 14C aldehyde detection); type: biochemical; conditions: SSAO inhibitory activity, RT
T1 construct: made in house
T1 sequence (Q16853 1-763): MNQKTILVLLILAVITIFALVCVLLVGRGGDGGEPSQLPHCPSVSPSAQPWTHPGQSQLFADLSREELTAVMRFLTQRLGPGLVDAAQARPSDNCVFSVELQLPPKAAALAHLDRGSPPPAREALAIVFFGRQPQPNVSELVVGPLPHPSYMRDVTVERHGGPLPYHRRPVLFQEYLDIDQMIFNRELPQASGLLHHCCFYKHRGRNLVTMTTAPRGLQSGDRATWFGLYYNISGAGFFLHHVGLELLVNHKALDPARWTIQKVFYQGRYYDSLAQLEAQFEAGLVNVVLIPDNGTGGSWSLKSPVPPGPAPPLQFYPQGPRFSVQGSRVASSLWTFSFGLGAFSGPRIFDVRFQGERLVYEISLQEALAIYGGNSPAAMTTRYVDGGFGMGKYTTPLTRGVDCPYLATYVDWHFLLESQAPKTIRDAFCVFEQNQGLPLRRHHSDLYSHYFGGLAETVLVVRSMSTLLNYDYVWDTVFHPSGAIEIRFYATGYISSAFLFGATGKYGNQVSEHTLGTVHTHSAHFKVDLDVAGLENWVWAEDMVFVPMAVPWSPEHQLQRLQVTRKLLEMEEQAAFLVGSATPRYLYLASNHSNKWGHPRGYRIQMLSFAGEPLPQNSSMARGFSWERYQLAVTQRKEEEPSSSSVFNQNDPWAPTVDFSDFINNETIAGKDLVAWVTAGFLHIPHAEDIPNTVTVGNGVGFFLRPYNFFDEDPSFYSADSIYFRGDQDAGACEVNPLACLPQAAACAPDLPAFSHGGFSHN
How it was run: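 IC50 values came from a four-parameter logistic fit of % signal decrease versus DMSO control, with no-enzyme background subtracted. Two read-outs were used with human recombinant SSAO after ~15 min compound pre-incubation at RT. In the H2O2/HRP-Amplex read-out, enzyme was 1 ug/ml and benzylamine 100 uM (pH 7.4 phosphate), with resorufin fluorescence followed 1-2 h. In the 14C-benzaldehyde read-out (PBS), enzyme was 10 ug/ml and benzylamine 40 uM, run 1 h then acid-stopped.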

[2] = target: T2, human ether a go-go related gene (hERG) K+ channel (Homo sapiens, UniProt Q12809); experiment: hERG assay, IonWorks patch clamp electrophysiology; type: cell-based; conditions: Chinese Hamster Lung cell line stably expressing hERG; max assay concentration 11 uM
T2 construct: a Chinese Hamster Lung cell line stably expressing the full length hERG channel; expressed in transfected cells; host or cells: Chinese Hamster Lung cell line
T2 sequence (Q12809 whole entry): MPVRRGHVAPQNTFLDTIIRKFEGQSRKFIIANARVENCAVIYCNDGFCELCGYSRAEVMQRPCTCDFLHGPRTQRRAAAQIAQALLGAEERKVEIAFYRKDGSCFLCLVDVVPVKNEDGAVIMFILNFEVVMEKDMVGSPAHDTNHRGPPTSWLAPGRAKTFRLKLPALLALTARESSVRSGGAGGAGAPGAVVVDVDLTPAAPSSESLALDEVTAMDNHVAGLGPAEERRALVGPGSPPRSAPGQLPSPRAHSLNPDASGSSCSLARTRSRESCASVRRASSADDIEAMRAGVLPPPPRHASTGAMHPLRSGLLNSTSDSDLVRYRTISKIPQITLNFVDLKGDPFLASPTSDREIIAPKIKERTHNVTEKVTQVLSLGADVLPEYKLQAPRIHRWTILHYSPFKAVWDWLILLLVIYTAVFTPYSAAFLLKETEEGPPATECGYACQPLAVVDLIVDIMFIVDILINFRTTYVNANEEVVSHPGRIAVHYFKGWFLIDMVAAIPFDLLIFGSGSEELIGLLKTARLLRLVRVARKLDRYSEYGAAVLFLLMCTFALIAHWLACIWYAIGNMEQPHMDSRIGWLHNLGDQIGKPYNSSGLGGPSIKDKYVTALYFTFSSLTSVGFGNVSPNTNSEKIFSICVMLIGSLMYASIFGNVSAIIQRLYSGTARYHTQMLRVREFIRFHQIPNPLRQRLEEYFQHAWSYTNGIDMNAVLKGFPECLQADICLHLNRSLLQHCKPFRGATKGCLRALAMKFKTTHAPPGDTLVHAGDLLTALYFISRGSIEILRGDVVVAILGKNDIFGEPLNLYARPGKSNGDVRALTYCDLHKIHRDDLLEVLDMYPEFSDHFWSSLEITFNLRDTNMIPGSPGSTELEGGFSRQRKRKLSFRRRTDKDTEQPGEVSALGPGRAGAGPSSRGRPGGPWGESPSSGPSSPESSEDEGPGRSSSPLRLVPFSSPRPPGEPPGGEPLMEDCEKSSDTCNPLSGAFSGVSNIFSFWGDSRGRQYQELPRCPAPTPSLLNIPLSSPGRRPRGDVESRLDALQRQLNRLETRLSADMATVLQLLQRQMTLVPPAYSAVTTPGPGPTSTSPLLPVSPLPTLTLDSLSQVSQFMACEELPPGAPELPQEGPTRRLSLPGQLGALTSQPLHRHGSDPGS
Method: Compounds of the invention were tested for inhibition of the human ether a go-go related gene (hERG) K^+ channel using IonWorks patch clamp electrophysiology. 8 Point concentration-response curves were generated on two occasions using 3-fold serial dilutions from the maximum assay concentration (11 uM). Electrophysiological recordings were made from a Chinese Hamster Lung cell line stably expressing the full length hERG channel. Single cell ion currents were measured in the perforated patch clamp configuration (100 ug/mL amphoterocin) at room temperature using an IonWorks Quattro instrument. The internal solution contained 140 mM KCl, 1 mM MgCl2, 1 mM EGTA and 20 mM HEPES and was buffered to pH 7.3. The external solution contained 138 mM NaCl, 2.7 mM KCl, 0.9 mM CaCl2, 0.5 mM MgCl2, 8 mM Na2HPO4 and 1.5 mM KH2PO4, and was buffered to pH 7.3. […] This sequence was repeated 5 times at a frequency of 0.25 Hz. Currents were measured from the tail step at the 5th pulse, and referenced to the holding current. Compounds were incubated for 6-7 min prior to a second measurement of the hERG signal using an identical pulse train. […] A control compound (quinidine) was used (see Table 20 below).

IC50 [1] [nM]	SMILES	IC50 [2] [nM]
50 to 200	Clc1ccc(-n2c(-c3cnc(N4CCNCC4)o3)nc3ccncc32)cc1 [Example 18, 1-{5-[3-(4-Chlorophenyl)-3H-imidazo[4,5-c]pyridin-2-yl]-1,3-oxazol-2-yl}piperazine dihydrochloride]	> 10000
200 to 1200	CN(C)c1ccc(-c2nc3ccncc3n2-c2ccc(F)cc2)cn1 [Example 71, 5-[3-(4-Fluorophenyl)-3H-imidazo[4,5-c]pyridin-2-yl]-N,N-dimethylpyridin-2-amine]	> 10000
< 50	Clc1ccc(-n2c(-c3ccc(N4CCOCC4)nn3)nc3ccncc32)cc1 [Example 4, 4-{6-[3-(4-Chlorophenyl)-3H-imidazo[4,5-c]pyridin-2-yl]pyridazin-3-yl}morpholine]	1000 to 10000
50 to 200	Clc1ccc(-n2c(-c3ccncc3Cl)cc3ccncc32)cc1 [Example 153, 3-Chloro-4-[1-(4-chlorophenyl)-1H-pyrrolo[2,3-c]pyridin-2-yl]pyridine]	1000 to 10000
< 50	CC1CN(c2ccc(-c3nc4ccncc4n3-c3ccc(F)cc3)cn2)CCO1 (stereo not drawn) [Example 70, 4-{5-[3-(4-Fluorophenyl)-3H-imidazo[4,5-c]pyridin-2-yl]pyridin-2-yl}-2-methylmorpholine]	> 10000
< 50	O=c1cc(-c2cc3ccncc3n2-c2ccc(Cl)cc2)ccn1C1CC1 [Example 138, 4-[1-(4-Chlorophenyl)-1H-pyrrolo[2,3-c]pyridin-2-yl]-1-cyclopropyl-1,2-dihydropyridin-2-one]	1000 to 10000
50 to 200	Fc1ccc(-n2c(-c3cnc(NC4CCOCC4)nc3)nc3ccncc32)cc1 [Example 20, 5-[3-(4-Fluorophenyl)-3H-imidazo[4,5-c]pyridin-2-yl]-N-(oxan-4-yl)pyrimidin-2-amine]	> 10000
< 50	Clc1ccc(-n2c(-c3cnc(NC4CCOCC4)nc3)nc3ccncc32)cc1 [Example 11, 5-[3-(4-Chlorophenyl)-3H-imidazo[4,5-c]pyridin-2-yl]-N-(oxan-4-yl)pyrimidin-2-amine; bis(trifluoroacetic acid)]	> 10000

Continued, compound first:

SMILES	IC50 [1] [nM]	IC50 [2] [nM]
Clc1ccc(-n2c(-c3ccncc3)cc3ccncc32)cc1 [Example 120, 4-[1-(4-Chlorophenyl)-1H-pyrrolo[2,3-c]pyridin-2-yl]pyridine]	200 to 1200	1000 to 10000
Cc1ccc(-n2c(-c3ccc(N4CCOCC4)nc3)nc3ccncc32)cc1 [Example 63, 4-{5-[3-(4-Methylphenyl)-3H-imidazo[4,5-c]pyridin-2-yl]pyridin-2-yl}morpholine]	200 to 1200	> 10000
Clc1ccc(-n2c(-c3cccnc3)cc3ccncc32)cc1 [Example 122, 3-[1-(4-Chlorophenyl)-1H-pyrrolo[2,3-c]pyridin-2-yl]pyridine]	50 to 200	1000 to 10000
Clc1ccc(-n2c(-c3ccncc3)nc3ccncc32)cc1 [Example 2, 4-[3-(4-Chlorophenyl)-3H-imidazo[4,5-c]pyridin-2-yl] pyridine]	200 to 1200	> 10000
Clc1ccc(-n2c(-c3ccc(N4CCOCC4)nc3)nc3ccncc32)cc1 [Example 47, 4-{5-[3-(4-Chlorophenyl)-3H-imidazo[4,5-c]pyridin-2-yl]pyridin-2-yl}morpholine]	< 50	1000 to 10000
Fc1cc(Cl)ccc1-n1c(-c2ccc(N3CCOCC3)nc2)nc2ccncc21 [Example 80, 4-{5-[3-(4-Chloro-2-fluorophenyl)-3H-imidazo[4,5-c]pyridin-2-yl]pyridin-2-yl}morpholine]	50 to 200	> 10000
Fc1ccc(-n2c(-c3cnc(N4CCOCC4)c(F)c3)nc3ccncc32)cc1 [Example 98, 4-{3-Fluoro-5-[3-(4-fluorophenyl)-3H-imidazo[4,5-c]pyridin-2-yl]pyridin-2-yl]morpholine]	50 to 200	> 10000
CC1(C)CN(c2ncc(-c3nc4ccncc4n3-c3ccc(F)cc3)cn2)CCO1 [Example 24, 4-{5-[3-(4-Fluorophenyl)-3H-imidazo[4,5-c]pyridin-2-yl]pyrimidin-2-yl}-2,2-dimethylmorpholine]	< 50	> 10000
CS(=O)(=O)NC1CCN(c2ccc(-c3nc4ccncc4n3-c3ccc(Cl)cc3)cn2)CC1 [Example 88, N-(1-{5-[3-(4-Chlorophenyl)-3H-imidazo[4,5-c]pyridin-2-yl]pyridin-2-yl}piperidin-4-yl)methanesulfonamide]	< 50	1000 to 10000
C[C@@H]1CN(c2ncc(-c3nc4ccncc4n3-c3ccc(F)cc3)cn2)C[C@H](C)O1 [Example 23, (2R,6S)-4-{5-[3-(4-Fluorophenyl)-3H-imidazo [4,5-c]pyridin-2-yl]pyrimidin-2-yl}-2,6-dimethylmorpholine]	< 50	> 10000
Cc1cc(N2CCOCC2)ncc1-c1nc2ccncc2n1-c1ccc(F)cc1 [Example 21, 4-{5-[3-(4-Fluorophenyl)-3H-imidazo[4,5-c]pyridin-2-yl]-4-methylpyridin-2-yl}morpholine]	< 50	> 10000
Clc1ccc(-n2c(-c3cnc(N4CCOCC4)nc3)nc3ccncc32)nc1 [Example 75, 4-{5-[3-(5-Chloropyridin-2-yl)-3H-imidazo[4,5-c]pyridin-2-yl]pyrimidin-2-yl}morpholine; tris(trifluoroacetic acid)]	< 50	> 10000
NC(=O)NC1CCN(c2ccc(-c3nc4ccncc4n3-c3ccc(Cl)cc3)cn2)CC1 [Example 91, (1-{5-[3-(4-Chlorophenyl)-3H-imidazo[4,5-c]pyridin-2-yl]pyridin-2-yl}piperidin-4-yl)urea; bis(trifluoroacetic acid)]	200 to 1200	> 10000
